Measured values as given in ChEMBL document CHEMBL5380860, “Design, Synthesis, and Antitumor Activity of Potent and Selective EGFR L858R/T790M Inhibitors and Identification of a Combination Therapy to Overcome Acquired Resistance in Models of Non-small-cell Lung Cancer” (J Med Chem, 2023).
Calls of active or inactive are those of the source. The calls are words filed in the database; no cut-off is given here.

How the values were obtained:
[1] = Cytotoxicity against human A-431 cells harboring wild type EGFR assessed as reduction in cell viability measured after 72 hrs by MTT assay; format: toxicity, cell-based
[2] = Covalent binding affinity to L-cysteine assessed as increase in 619.2 Da mass at L-cysteine to compound concentration ratio of 1:4 incubated for 8 hrs by LC-MS analysis
[3] = test system: Epidermal growth factor receptor (Homo sapiens), P00533 [L858R,T790M]; assay: Covalent binding affinity to EGFR L858R/T790M mutant (unknown origin) assessed as enzyme-compound complex formation at protein to compound concentration ratio of 1:4 incubated for 1 hr by LC-MS analysis
[4] = test system: Epidermal growth factor receptor (Homo sapiens), P00533 [L858R,T790M]; assay: Covalent binding affinity to EGFR L858R/T790M mutant (unknown origin) assessed as covalent adduct formation at Cys797 residue at protein to compound concentration ratio of 1:4 incubated for 1 hr and measured following enzymatic hydrolysis by LC-MS analysis
[5] = test system: Epidermal growth factor receptor (Homo sapiens), P00533 [T790M]; assay: Inhibition of human partial length EGFR (R669 to G1022 residues) T790M mutant expressed in mammalian expression system assessed as residual activity at 1 uM by KINOMEscan analysis
[6] = biological target: STE20-like serine/threonine-protein kinase (Homo sapiens, UniProt Q9H2G2); assay: Inhibition of human wild type partial length SLK (S14 to A307 residues) expressed in bacterial expression system assessed as residual activity at 1 uM by KINOMEscan analysis
Chain of STE20-like serine/threonine-protein kinase (Q9H2G2 whole entry, looked up, the tested form may be a part): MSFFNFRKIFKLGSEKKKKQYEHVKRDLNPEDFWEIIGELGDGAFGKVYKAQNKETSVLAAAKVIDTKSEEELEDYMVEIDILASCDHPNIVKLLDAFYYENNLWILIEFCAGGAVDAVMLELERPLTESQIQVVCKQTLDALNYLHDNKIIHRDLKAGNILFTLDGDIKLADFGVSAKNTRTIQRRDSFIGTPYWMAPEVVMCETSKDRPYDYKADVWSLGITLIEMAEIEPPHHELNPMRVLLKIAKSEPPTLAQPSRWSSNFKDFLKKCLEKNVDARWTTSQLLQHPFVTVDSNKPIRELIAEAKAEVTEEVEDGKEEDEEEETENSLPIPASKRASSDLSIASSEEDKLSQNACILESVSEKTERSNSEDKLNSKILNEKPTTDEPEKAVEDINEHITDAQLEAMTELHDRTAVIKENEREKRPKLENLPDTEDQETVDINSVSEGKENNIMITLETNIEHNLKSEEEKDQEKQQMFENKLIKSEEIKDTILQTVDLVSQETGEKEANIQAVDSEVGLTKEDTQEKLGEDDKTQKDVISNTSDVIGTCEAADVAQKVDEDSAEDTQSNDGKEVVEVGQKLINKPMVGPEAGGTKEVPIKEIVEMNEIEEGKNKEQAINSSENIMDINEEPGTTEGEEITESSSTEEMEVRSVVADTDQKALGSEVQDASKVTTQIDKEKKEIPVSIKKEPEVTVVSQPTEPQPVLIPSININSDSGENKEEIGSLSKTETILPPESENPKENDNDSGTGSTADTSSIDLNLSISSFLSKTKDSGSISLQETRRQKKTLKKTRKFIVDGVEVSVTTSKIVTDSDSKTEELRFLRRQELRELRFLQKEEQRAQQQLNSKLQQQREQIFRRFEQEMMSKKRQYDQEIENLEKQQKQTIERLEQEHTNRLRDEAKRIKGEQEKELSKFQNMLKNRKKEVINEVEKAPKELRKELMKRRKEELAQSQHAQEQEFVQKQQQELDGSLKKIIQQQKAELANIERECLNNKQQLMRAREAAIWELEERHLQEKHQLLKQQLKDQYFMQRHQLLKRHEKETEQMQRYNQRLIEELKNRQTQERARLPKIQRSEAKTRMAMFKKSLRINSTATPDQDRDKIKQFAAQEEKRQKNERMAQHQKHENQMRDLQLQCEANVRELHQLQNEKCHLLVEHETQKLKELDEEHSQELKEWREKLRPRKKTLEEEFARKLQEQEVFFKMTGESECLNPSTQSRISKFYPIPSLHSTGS

[7] = biological target: Epidermal growth factor receptor (Homo sapiens, UniProt P00533); assay: Inhibition of human wild type partial length EGFR (R669 to V1011 residues) expressed in bacterial expression system by KINOMEscan analysis; format: toxicity
[8] = biological target: Epidermal growth factor receptor (Homo sapiens, UniProt P00533, EX19DEL); assay: Inhibition of human EGFR exon del19 mutant by KINOMEscan analysis
[9] = biological target: Proto-oncogene tyrosine-protein kinase Src (Homo sapiens, UniProt P12931); assay: Inhibition of human wild type partial length Src kinase (L240 to L536 residues) expressed in bacterial expression system by KINOMEscan analysis
Chain of Proto-oncogene tyrosine-protein kinase Src (P12931 2-536 limits assumed): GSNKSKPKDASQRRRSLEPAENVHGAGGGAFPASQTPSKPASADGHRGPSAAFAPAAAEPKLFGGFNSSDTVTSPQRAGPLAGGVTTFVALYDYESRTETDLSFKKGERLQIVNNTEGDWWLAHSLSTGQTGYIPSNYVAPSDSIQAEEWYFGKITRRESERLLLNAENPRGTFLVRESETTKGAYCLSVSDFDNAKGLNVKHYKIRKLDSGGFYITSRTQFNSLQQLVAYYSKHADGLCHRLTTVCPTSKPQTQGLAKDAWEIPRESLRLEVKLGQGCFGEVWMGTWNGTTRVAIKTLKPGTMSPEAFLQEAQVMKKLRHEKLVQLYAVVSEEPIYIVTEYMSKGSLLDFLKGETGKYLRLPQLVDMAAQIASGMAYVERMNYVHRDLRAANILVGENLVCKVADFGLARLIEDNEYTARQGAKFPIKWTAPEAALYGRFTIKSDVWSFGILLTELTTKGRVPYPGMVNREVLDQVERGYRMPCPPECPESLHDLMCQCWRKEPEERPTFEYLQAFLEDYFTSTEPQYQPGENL

[10] = test system: Epidermal growth factor receptor (Homo sapiens), P00533 [L858R,T790M]; assay: Inhibition of EGFR L858R/T790M mutant in human NCI-H1975 cells assessed as inhibition of EGF-induced EGFR phosphorylation at Tyr1068 residue at 1 uM pretreated with compound for 4 hrs followed by incubation with EGF for 10 mins by western blot analysis; format: cell-based; conditions: time 250.0 min
NCI-H1975 [11] = assay: Induction of apoptosis in human NCI-H1975 cells assessed as increase in caspase-3/7 activity at 0.1 to 10 uM incubated for 24 hrs by Caspase-Glo reagent based luminescence analysis; format: functional, cell-based; conditions: dose 0.1-10 µM
HCC827 = assay: Induction of apoptosis in human HCC827 cells assessed as increase in caspase-3/7 activity at 0.1 to 10 uM incubated for 24 hrs by Caspase-Glo reagent based luminescence analysis; format: functional, cell-based; conditions: dose 0.1-10 µM
A-431 = assay: Inhibition of clonogenicity in human A-431 cells assessed as inhibition of colony formation at 0.1 to 10 uM incubated for 14 days by crystal violet staining based analysis; format: toxicity, cell-based; conditions: a-431, 336 h, dose 0.1-10 µM, time 14 day
A549 = assay: Inhibition of cell migration in human A549 cells at 10 uM incubated for 48 hrs by scratch wound healing assay; format: toxicity, cell-based; conditions: a549, 48 h
[12] = AUC (0 to infinity) in Sprague-Dawley rat at 1 mg/kg, iv by LC-MS analysis; format: ADME, organism-based; set-up: dose 1 mg/kg, route iv; conditions: in vivo
[13] = Clearance in Sprague-Dawley rat at 1 mg/kg, iv by LC-MS analysis; format: ADME, organism-based; conditions: in vivo
[14] = Toxicity in BALB/c mouse xenografted with human NCI-H1975 cells assessed as effect on body weight at 5 to 20 mg/kg/day, ip; format: organism-based; conditions: in vivo, dose 5-20 mg/kg/day
[15] = Toxicity in BALB/c mouse xenografted with human NCI-H1975 cells assessed as change in liver morphological changes at 5 to 20 mg/kg/day, ip by hematoxylin-eosin staining based analysis; format: organism-based; conditions: in vivo, dose 5-20 mg/kg/day
[16] = Toxicity in BALB/c mouse xenografted with human NCI-H1975 cells assessed as change in kidney morphological changes at 5 to 20 mg/kg/day, ip by hematoxylin-eosin staining based analysis; format: organism-based; conditions: in vivo, dose 5-20 mg/kg/day
NCI-H1975 [17] = assay: Antitumor activity against human NCI-H1975 cells xenografted in BALB/c mouse assessed as decrease in Ki-67 expression in tumor at 5 to 20 mg/kg/day, ip by immunohistochemistry; format: functional, organism-based; conditions: dose 5-20 mg/kg/day
Mus musculus [18] = assay: In vivo inhibition of EGFR L858R/T790M mutant in NCI-H1975 cells xenografted BALB/c mouse assessed as inhibition of EGFR phosphorylation at Tyr1068 residue at 5 to 20 mg/kg/day, ip in tumor by immunohistochemistry; format: functional, organism-based; conditions: dose 5-20 mg/kg/day
Mus musculus [19] = assay: In vivo inhibition of EGFR L858R/T790M mutant in NCI-H1975 cells xenografted BALB/c mouse assessed as inhibition of AKT phosphorylation at Ser473 residue at 5 to 20 mg/kg/day, ip in tumor by immunohistochemistry; format: functional, organism-based; conditions: dose 5-20 mg/kg/day
[20] = test system: Epidermal growth factor receptor (Homo sapiens), P00533 [L858R,T790M]; assay: Inhibition of EGFR L858R/T790M mutant in osimertinib-resistant human NCI-H1975 cells assessed as inhibition of EGF-induced Akt phosphorylation at Ser473 residue pretreated with compound for 4 hrs followed by incubation with EGF for 10 mins by western blot analysis; format: cell-based; conditions: time 250.0 min
NCI-H1975 [21] = assay: (§1) Antiproliferative activity against N-(3-((6-Fluoro-2-((4-(4-methylpiperazin-1-yl)phenyl)amino)quinazolin-4-yl)amino)phenyl)acrylamide-resistant human NCI-H1975 cells assessed as reduction in cell viability at compound:AIM100 concentration ratio of 3:1 to 1:3 measured after 72 hrs in presence of ACK1 inhibitor, AIM100 by MTT assay; format: functional, cell-based
NCI-H1975 [22] = assay: as §1, with “compound:dasatinib” for “compound:AIM100”, “Dasatinib” for “AIM100”; format: functional, cell-based
[23] = test system: Epidermal growth factor receptor (Homo sapiens), P00533 [L858R,T790M]; assay: Inhibition of EGFR L858R/T790M mutant in N-(3-((6-Fluoro-2-((4-(4-methylpiperazin-1-yl)phenyl)amino)quinazolin-4-yl)amino)phenyl)acrylamide-resistant human NCI-H1975 cells assessed as inhibition of EGF-induced AKT phosphorylation at Ser473 residue pretreated with compound and ACK1 inhibitor, AIM-100 for 4 hrs followed by incubation with EGF for 10 mins by western blot analysis; format: cell-based; conditions: time 250.0 min
NCI-H1975 [24] = assay: Antitumor activity against N-(3-((6-Fluoro-2-((4-(4-methylpiperazin-1-yl)phenyl)amino)quinazolin-4-yl)amino)phenyl)acrylamide-resistant human NCI-H1975 cells xenografted in BALB/c mouse assessed as inhibition of tumor growth at 20 mg/kg/day, ip; format: functional, organism-based
[25] = Toxicity in BALB/c mouse xenografted with N-(3-((6-Fluoro-2-((4-(4-methylpiperazin-1-yl)phenyl)amino)quinazolin-4-yl)amino)phenyl)acrylamide-resistant human NCI-H1975 cells assessed as changes in spleen morphological changes at 20 mg/kg/day, ip in presence of ACK1 inhibitor, dasatinib by hematoxylin-eosin staining based analysis; format: organism-based; conditions: in vivo
NCI-H1975 [26] = assay: Antitumor activity against N-(3-((6-Fluoro-2-((4-(4-methylpiperazin-1-yl)phenyl)amino)quinazolin-4-yl)amino)phenyl)acrylamide-resistant human NCI-H1975 cells xenografted in BALB/c mouse assessed as […] in TUNEL-positive cells in tumor at 20 mg/kg/day, ip in presence of ACK1 inhibitor, dasatinib by TUNEL assay; format: functional, organism-based

## C=CC(=O)Nc1cccc(Nc2nc(Nc3ccc(N4CCN(C)CC4)cc3)nc3ccc(F)cc23)c1
[1]
  IC50 at 72 h: 2490 nM
[2]
  Activity: Active
[3]
  Activity: Active
[4]
  Activity: Active
[5]
  Activity: 3%
[6]
  Activity: 29%
[7]
  IC50: 1290 nM
[8]
  IC50: 1.3 nM
[9]
  IC50: 603 nM
[10]
  inhibition: Active
NCI-H1975 [11]
  Activity: Active
HCC827
  Activity: Active
A-431
  Activity: Non-Toxic
A549
  Activity: Non-Toxic
[12]
  AUC(0-inf): 1050 ng·h/mL
[13]
  clearance: 16.1 mL/min/kg
[14]
  Activity: Non-Toxic
[15]
  Activity: Non-Toxic
[16]
  Activity: Non-Toxic
NCI-H1975 [17]
  Activity: Active
Mus musculus [18]
  inhibition: Active
Mus musculus [19]
  inhibition: Active
[20]
  inhibition: inactive
NCI-H1975 [21]
  Activity: Active
NCI-H1975 [22]
  Activity: Active
[23]
  inhibition: Active
NCI-H1975 [24]
  Activity: inactive
[25]
  Activity: Non-Toxic
NCI-H1975 [26]
  Activity: Active
